What is called MIC is the smallest concentration in the dilution series that meets the test's criterion for growth inhibition.

Type in all cases: cell-based
One experiment deals with M. tuberculosis H37Rv. The experiment in a line: In vitro inhibition of M. tuberculosis H37Rv (MIC, resazurin). To be noted: Mycobacterium tuberculosis, read-out: Mtb MIC. Background: The colour change of resazurin is a common sign of viable cells or microbes.
The subject of a further experiment is Hep G2. The experiment in a line: Hep G2 in-vitro cytotoxicity assay. The note with it: Homo sapiens, HepG2, read-out: Hs HEPG2 pEC50 (converted). A digest of the protocol: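 Hep G2 human hepatocyte carcinoma cells serve as a general mammalian cell toxicity indicator, following the Mersch-Sundermann procedure.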
In experiment [1] the test system is Plasmodium falciparum strain 3D7. The experiment in a line: Plasmodium falciparum 3D7 in vitro growth inhibition (SYBRgreen I). The note with it: Plasmodium falciparum, 3D7; read-out: pEC50 for Pf 3D7 (converted). A digest of the protocol:
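10-point, 1-in-3 dilution series from a top concentration of 50 μM; parasite growth read as SYBRgreen I fluorescence on double-stranded DNA (ex 485/em 528 nm). EC50 = concentration causing 50% parasite death, from at least 3 independent experiments.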

A further experiment relates to Leishmania donovani. The experiment in a line: Ld-cAxAm-TP-pMIC assay. The note with it: read-out: Ld-cAxAm-TP-pMIC pEC50 (converted).

Converted amounts (≈) assume the structure as drawn.

For the compound `O=C(NCC1CCCCC1)c1cc(=O)c2cc(F)cc(O)c2o1` [Example 70, N-(cyclohexylmethyl)-6-fluoro-8-hydroxy-4-oxo-4H-chromene-2-carboxamide], the MIC in the experiment with M. tuberculosis H37Rv came out at 30 µM (≈ 9.58 µg/mL). In addition, the EC50 was 31.6 µM in the experiment on Hep G2, 0.1 µM in experiment [1] and 0.794 µM in the experiment on Leishmania donovani.

(Values after US11485720B2, “Anti-infective agents” (University of Dundee, priority 2016, dated 2022).)
